Reference: patent US20230265151A1, “GIP/GLP1 CO-AGONIST COMPOUNDS” (priority 2020, published 2023)
Where two headings read alike, the source gives them in different places.

What was measured:
[1] = target: T1, hGCGR (Homo sapiens, UniProt P47871); experiment: Functional cAMP formation (HTRF) in HEK-293 clonal cells expressing hGCGR, 0.1% bovine casein, without or with 1.0% human serum albumin; assay type: cell-based; conditions: geometric mean
T1 construct: expressed in transfected cells
Protocol: (§1) After a 30-min incubation at 37° C., the resulting increase in intracellular cAMP is quantitatively determined using a CisBio cAMP Dynamic 2 HTRF Assay Kit (62AM4PEJ). Briefly, cAMP levels within the cell are detected by adding the cAMP-d2 conjugate in cell lysis buffer (10 µL) followed by the antibody anti-cAMP-Eu^3+-Cryptate, also in cell lysis buffer (10 µL). The resulting competitive assay is incubated for at least 60 min at room temperature, and then is detected using a PerkinElmer Envision® instrument with excitation at 320 nm and emission at 665 nm and 620 nm. Envision units (emission at 665 nm/620 nm* 10,000) are inversely proportional to the amount of cAMP present and are converted to nM cAMP per well us-ing a cAMP standard curve. […] A relative EC50 value and percent top (Emax) are derived by non-linear regression analysis using the percent maximal response vs. the concentration of peptide added, fitted to a four-parameter logistic equation.

[2] = target: T2, hGIPR (Homo sapiens, UniProt P48546); experiment: Functional cAMP formation (HTRF) in HEK-293 clonal cells expressing hGIPR, 0.1% bovine casein, without or with 1.0% human serum albumin; assay type: cell-based; conditions: for Emax: 37° C.; for EC50: cAMP, incubated at 37° C., 0.1% bovine casein (no human serum albumin), geometric mean
T2 construct: expressed in transfected cells
T2 sequence (P48546 22-466): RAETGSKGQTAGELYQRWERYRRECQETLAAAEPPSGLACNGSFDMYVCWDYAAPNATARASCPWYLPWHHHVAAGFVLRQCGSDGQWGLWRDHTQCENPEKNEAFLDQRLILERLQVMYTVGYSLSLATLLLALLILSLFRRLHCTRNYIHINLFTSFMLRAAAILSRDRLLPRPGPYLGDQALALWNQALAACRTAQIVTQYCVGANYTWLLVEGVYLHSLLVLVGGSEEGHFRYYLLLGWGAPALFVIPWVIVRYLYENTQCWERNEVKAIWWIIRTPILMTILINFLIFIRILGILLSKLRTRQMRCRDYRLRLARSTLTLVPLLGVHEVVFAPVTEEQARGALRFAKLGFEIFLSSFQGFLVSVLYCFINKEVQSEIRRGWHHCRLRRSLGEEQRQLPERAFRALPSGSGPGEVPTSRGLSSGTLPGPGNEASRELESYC
Protocol: as §1

[3] = hGCGR EC50, nM (SEM, n), cAMP, incubated at 37° C., 0.1% bovine casein (no human serum albumin)
[4] = HEK293, read-out: hGIPR Emax, % ± SEM, percent of maximal response to GIP(1-42)NH2, 0.1% bovine casein, arithmetic mean
[5] = cAMP, incubated at 37° C., 0.1% bovine casein (no human serum albumin), read-out: hGCGR EC50, nM (SEM, n)
[6] = HEK293, percent of maximal response to GIP(1-42)NH2, 0.1% bovine casein, arithmetic mean, read-out: hGIPR Emax, % ± SEM

T1 sequence (P47871 26-477): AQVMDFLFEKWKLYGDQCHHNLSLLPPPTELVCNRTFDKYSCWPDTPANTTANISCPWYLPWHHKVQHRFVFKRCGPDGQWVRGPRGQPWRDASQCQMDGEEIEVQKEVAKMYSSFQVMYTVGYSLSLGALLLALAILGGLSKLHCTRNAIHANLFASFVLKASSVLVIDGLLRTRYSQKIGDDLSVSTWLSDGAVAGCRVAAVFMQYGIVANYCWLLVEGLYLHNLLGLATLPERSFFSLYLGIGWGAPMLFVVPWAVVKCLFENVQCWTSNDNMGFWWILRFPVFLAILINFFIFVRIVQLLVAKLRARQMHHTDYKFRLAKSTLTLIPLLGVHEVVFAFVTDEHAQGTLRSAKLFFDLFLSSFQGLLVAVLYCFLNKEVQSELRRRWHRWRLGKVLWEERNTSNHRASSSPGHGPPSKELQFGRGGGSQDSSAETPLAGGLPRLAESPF

`CC[C@H](C)[C@H](NC(=O)[C@H](CC(C)C)NC(=O)[C@](C)(Cc1ccc(O)cc1)NC(=O)[C@H](CCCCNC(=O)COCCOCCNC(=O)COCCOCCNC(=O)COCCOCCNC(=O)CC[C@H](NC(=O)CCCCCCCCCCCCC(=O)O)C(=O)O)NC(=O)[C@@H](NC(=O)[C@H](Cc1ccccc1)NC(=O)[C@H](CCC(=O)O)NC(=O)C(C)(C)NC(=O)[C@H](CCC(N)=O)NC(=O)[C@H](C)NC(=O)[C@H](CCCCNC(=O)COCCOCCNC(=O)COCCOCCNC(=O)COCCOCCNC(=O)CC[C@H](NC(=O)CCCCCCCCCCCCC(=O)O)C(=O)O)NC(=O)[C@H](CCCN)NC(=O)[C@H](CC(=O)O)NC(=O)[C@H](CC(C)C)NC(=O)[C@](C)(CC(C)C)NC(=O)[C@@H](NC(=O)[C@H](CO)NC(=O)[C@H](Cc1ccncc1)NC(=O)[C@H](CC(=O)O)NC(=O)[C@H](CO)NC(=O)[C@@H](NC(=O)[C@](C)(Cc1ccccc1F)NC(=O)[C@@H](NC(=O)CNC(=O)[C@H](CCC(=O)O)NC(=O)C(C)(C)NC(=O)[C@@H](N)Cc1ccc(O)cc1)[C@@H](C)O)[C@@H](C)O)[C@@H](C)CC)[C@@H](C)CC)C(=O)N[C@@H](CCC(=O)O)C(=O)NCC(=O)NCC(=O)N1CCC[C@H]1C(=O)N[C@@H](CO)C(=O)N[C@@H](CO)C(=O)NCC(=O)N[C@@H](C)C(=O)N1CCC[C@H]1C(=O)N1CCC[C@H]1C(=O)N1CCC[C@H]1C(=O)N[C@@H](CO)C(N)=O` [Example 80] showed an EC50 [1, 3] of over 9950 nM, an Emax [2, 4] of 92.4 ± 1.14% and an EC50 ([2]; hGIPR EC50, nM (SEM, n)) of 0.0245 nM.
For `CC[C@H](C)[C@H](NC(=O)[C@H](CC(C)C)NC(=O)[C@](C)(Cc1ccccc1)NC(=O)[C@H](CCCCNC(=O)COCCOCCNC(=O)COCCOCCNC(=O)CC[C@H](NC(=O)CCCCCCCCCCCCC(=O)O)C(=O)O)NC(=O)[C@@H](NC(=O)[C@H](Cc1ccccc1)NC(=O)[C@H](CCC(=O)O)NC(=O)C(C)(C)NC(=O)[C@H](CCC(N)=O)NC(=O)[C@H](C)NC(=O)[C@H](CCCCNC(=O)COCCOCCNC(=O)COCCOCCNC(=O)CC[C@H](NC(=O)CCCCCCCCCCCCC(=O)O)C(=O)O)NC(=O)[C@H](CCCN)NC(=O)[C@H](CC(=O)O)NC(=O)[C@H](CC(C)C)NC(=O)[C@](C)(CC(C)C)NC(=O)[C@@H](NC(=O)[C@H](CO)NC(=O)[C@H](Cc1ccncc1)NC(=O)[C@H](CC(=O)O)NC(=O)[C@H](CO)NC(=O)[C@@H](NC(=O)[C@](C)(Cc1ccccc1F)NC(=O)[C@@H](NC(=O)CNC(=O)[C@H](CCC(=O)O)NC(=O)C(C)(C)NC(=O)[C@@H](N)Cc1ccc(O)cc1)[C@@H](C)O)[C@@H](C)O)[C@@H](C)CC)[C@@H](C)CC)C(=O)N[C@@H](CCC(=O)O)C(=O)NCC(=O)NCC(=O)N1CCC[C@H]1C(=O)N[C@@H](CO)C(=O)N[C@@H](CO)C(=O)NCC(=O)N[C@@H](C)C(=O)N1CCC[C@H]1C(=O)N1CCC[C@H]1C(=O)N1CCC[C@H]1C(=O)N[C@@H](CO)C(N)=O` [Example 83], the EC50 [1, 3] was over 9950 nM, the Emax [2, 4] was 89.6 ± 7.35% and the EC50 ([2]; hGIPR EC50, nM (SEM, n)) was 0.0223 nM.
Compound `CC[C@H](C)[C@H](NC(=O)[C@H](CC(C)C)NC(=O)[C@](C)(Cc1ccc(O)cc1)NC(=O)[C@@H](CCC(=O)O)NC(=O)[C@@H](NC(=O)[C@H](Cc1ccccc1)NC(=O)[C@H](CCC(=O)O)NC(=O)C(C)(C)NC(=O)[C@H](CCC(N)=O)NC(=O)[C@H](C)NC(=O)[C@H](CCC(N)=O)NC(=O)[C@H](CCCN)NC(=O)[C@H](CC(=O)O)NC(=O)[C@H](CC(C)C)NC(=O)[C@](C)(CC(C)C)NC(=O)[C@@H](NC(=O)[C@H](CO)NC(=O)[C@H](Cc1ccncc1)NC(=O)[C@H](CC(=O)O)NC(=O)[C@H](CO)NC(=O)[C@@H](NC(=O)[C@](C)(Cc1ccccc1F)NC(=O)[C@@H](NC(=O)CNC(=O)[C@H](CCC(=O)O)NC(=O)C(C)(C)NC(=O)[C@@H](N)Cc1ccc(O)cc1)[C@@H](C)O)[C@@H](C)O)[C@@H](C)CC)[C@@H](C)CC)C(=O)N[C@@H](CCCCNC(=O)COCCOCCNC(=O)COCCOCCNC(=O)CC[C@H](NC(=O)CCCCCCCCCCCCC(=O)O)C(=O)O)C(=O)NCC(=O)NCC(=O)N[C@@H](CCCCNC(=O)COCCOCCNC(=O)COCCOCCNC(=O)CC[C@H](NC(=O)CCCCCCCCCCCCC(=O)O)C(=O)O)C(=O)N[C@@H](CO)C(=O)N[C@@H](CO)C(=O)NCC(=O)N[C@@H](C)C(=O)N1CCC[C@H]1C(=O)N1CCC[C@H]1C(=O)N1CCC[C@H]1C(=O)N[C@@H](CO)C(N)=O` [Example 86] has an EC50 [1, 5] of over 9950 nM, an Emax [2, 6] of 94.2 ± 1.16% and an EC50 ([2]; read-out: hGIPR EC50, nM (SEM, n)) of 0.0184 nM.
In the case of `CC[C@H](C)[C@H](NC(=O)[C@H](CC(C)C)NC(=O)[C@](C)(Cc1ccc(O)cc1)NC(=O)[C@@H](CCC(=O)O)NC(=O)[C@@H](NC(=O)[C@H](Cc1ccccc1)NC(=O)[C@H](CCC(=O)O)NC(=O)C(C)(C)NC(=O)[C@H](CCC(N)=O)NC(=O)[C@H](C)NC(=O)[C@H](CCCCNC(=O)COCCOCCNC(=O)COCCOCCNC(=O)CC[C@H](NC(=O)CCCCCCCCCCCCC(=O)O)C(=O)O)NC(=O)[C@H](CCCN)NC(=O)[C@H](CC(=O)O)NC(=O)[C@H](CC(C)C)NC(=O)[C@](C)(CC(C)C)NC(=O)[C@@H](NC(=O)[C@H](CO)NC(=O)[C@@H](NC(=O)[C@H](CC(=O)O)NC(=O)[C@H](CO)NC(=O)[C@@H](NC(=O)[C@](C)(Cc1ccccc1F)NC(=O)[C@@H](NC(=O)CNC(=O)[C@H](CCC(=O)O)NC(=O)C(C)(C)NC(=O)[C@@H](N)Cc1ccc(O)cc1)[C@@H](C)O)[C@@H](C)O)C1CCCCC1)[C@@H](C)CC)[C@@H](C)CC)C(=O)N[C@@H](CCC(=O)O)C(=O)NCC(=O)NCC(=O)N[C@@H](CCCCNC(=O)COCCOCCNC(=O)COCCOCCNC(=O)CC[C@H](NC(=O)CCCCCCCCCCCCC(=O)O)C(=O)O)C(=O)N[C@@H](CO)C(=O)N[C@@H](CO)C(=O)NCC(=O)N[C@@H](C)C(=O)N1CCC[C@H]1C(=O)N1CCC[C@H]1C(=O)N1CCC[C@H]1C(=O)N[C@@H](CO)C(N)=O` [Example 97], the EC50 ([1]; 0.1% bovine casein and 1.0% human serum albumin, 37° C., read-out: hGCGR EC50, nM (SEM, n)) is reported as over 9950 nM, the EC50 [1, 5] is reported as over 9950 nM and the Emax ([2]; HEK293, 0.1% bovine casein and 1.0% human serum albumin, percent of maximal response to GIP(1-42)NH2, read-out: hGIPR Emax, % ± SEM) is reported as 93.1%. For the same compound, the Emax [2, 6] was 97 ± 1.53%.
`CC[C@H](C)[C@H](NC(=O)[C@H](CC(C)C)NC(=O)[C@](C)(Cc1ccc(O)cc1)NC(=O)[C@@H](CCC(=O)O)NC(=O)[C@@H](NC(=O)[C@H](Cc1ccccc1)NC(=O)[C@H](CCC(=O)O)NC(=O)C(C)(C)NC(=O)[C@H](CCC(N)=O)NC(=O)[C@H](C)NC(=O)[C@H](CCCCNC(=O)COCCOCCNC(=O)COCCOCCNC(=O)CC[C@H](NC(=O)CCCCCCCCCCCCC(=O)O)C(=O)O)NC(=O)[C@H](CCCN)NC(=O)[C@H](CC(=O)O)NC(=O)[C@H](CC(C)C)NC(=O)[C@](C)(CC(C)C)NC(=O)[C@@H](NC(=O)[C@H](CO)NC(=O)[C@H](Cc1csc2ccccc12)NC(=O)[C@H](CC(=O)O)NC(=O)[C@H](CO)NC(=O)[C@@H](NC(=O)[C@](C)(Cc1ccccc1F)NC(=O)[C@@H](NC(=O)CNC(=O)[C@H](CCC(=O)O)NC(=O)C(C)(C)NC(=O)[C@@H](N)Cc1ccc(O)cc1)[C@@H](C)O)[C@@H](C)O)[C@@H](C)CC)[C@@H](C)CC)C(=O)N[C@@H](CCC(=O)O)C(=O)NCC(=O)NCC(=O)N[C@@H](CCCCNC(=O)COCCOCCNC(=O)COCCOCCNC(=O)CC[C@H](NC(=O)CCCCCCCCCCCCC(=O)O)C(=O)O)C(=O)N[C@@H](CO)C(=O)N[C@@H](CO)C(=O)NCC(=O)N[C@@H](C)C(=O)N1CCC[C@H]1C(=O)N1CCC[C@H]1C(=O)N1CCC[C@H]1C(=O)N[C@@H](CO)C(N)=O` [Example 142] showed an EC50 [1, 5] of over 9950 nM.
